The source made the active and inactive calls.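 Rule for the calls: active = inhibition of 30% or more against both LYPLA2 panels while inhibition against LYPLA1 stays below 30%; inactive = under 30% on either LYPLA2 panel, or 30%+ on LYPLA1.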
Legend:
Experiment in all cases: inhibitor selectivity across mouse and human LYPLA2, LYPLA1 – cell lysate, gel-based ABPP, FP-Rh fluorescence, mouse brain membrane proteome, selectivity assay for LYPLA2 selective inhibitor project, late-stage follow-up (AID 652030)
[1] = target: Acyl-protein thioesterase 1 (Mus musculus) (UniProt P97823); conditions: emLYPLA1, at 10 µM, hits give high values
[2] = target: Acyl-protein thioesterase 2 (Mus musculus) (UniProt Q9WTL7); conditions: emLYPLA2, at 10 µM, hits give high values
[3] = target: Acyl-protein thioesterase 2 (Homo sapiens) (UniProt O95372); conditions: rhLYPLA2, at 10 µM, hits give high values
Acyl-protein thioesterase 2 (Homo sapiens), sequence (O95372 whole entry, looked up): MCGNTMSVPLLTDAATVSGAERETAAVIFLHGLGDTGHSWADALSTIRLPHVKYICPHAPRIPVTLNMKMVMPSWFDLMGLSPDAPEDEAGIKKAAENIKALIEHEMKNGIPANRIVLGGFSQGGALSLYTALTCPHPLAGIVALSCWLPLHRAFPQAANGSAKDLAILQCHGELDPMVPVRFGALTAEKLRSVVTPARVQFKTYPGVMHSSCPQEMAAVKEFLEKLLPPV

SMILES: COc1ccc(N2CCN(C(=O)C3CCC(Cn4c(=S)[nH]c5ccccc5c4=O)CC3)CC2)cc1 (centres undefined)
- inhibition [1]: 16% (inactive)
- inhibition [2]: 44%
- inhibition [3]: 47%

SMILES: COc1ccc(/C=C2\SC(=O)N(CC(=O)Nc3ccc(F)cc3)C2=O)cc1O
- inhibition [1]: 15% (inactive)
- inhibition [2]: 24% (inactive)
- inhibition [3]: 16% (inactive)

SMILES: CS(=O)(=O)Nc1ccc(N2CCN(c3ccc(C(F)(F)F)cn3)CC2)nc1
- inhibition [1]: 0% (inactive)
- inhibition [2]: 1% (inactive)
- inhibition [3]: 8% (inactive)

SMILES: O=C(COc1ccc(Cl)cc1Cl)N1CCN(C/C=C/c2ccccc2)CC1
- inhibition [1]: 0% (inactive)
- inhibition [2]: 0% (inactive)
- inhibition [3]: 2% (inactive)

SMILES: Cc1ccc(Oc2ccc3c(c2)C(=O)N(c2ccc(S(=O)(=O)Nc4nccs4)cc2)C3=O)cc1
- inhibition [1]: 14% (inactive)
- inhibition [2]: 6% (inactive)
- inhibition [3]: 9% (inactive)

SMILES: O=C1Nc2ccc([N+](=O)[O-])cc2OC1CCN1CCN(Cc2ccc3c(c2)OCO3)CC1 (centres undefined)
- inhibition [1]: 27% (inactive)
- inhibition [2]: 21% (inactive)
- inhibition [3]: 9% (inactive)

SMILES: COc1ccccc1-n1cc(C(=O)NCC(=O)N2CCN(Cc3ccccc3)CC2)c2ccccc2c1=O
- inhibition [1]: 0% (inactive)
- inhibition [2]: 15% (inactive)
- inhibition [3]: 14% (inactive)

SMILES: COc1ccc2c(c1)C(=O)[C@H](O)[C@@H](c1ccc(OC)c(Br)c1)O2
- inhibition [1]: 23% (inactive)
- inhibition [2]: 55%
- inhibition [3]: 47%

SMILES: CON=Cc1ccc(N2CCN(C(=O)c3cccc(C(F)(F)F)c3)CC2)c([N+](=O)[O-])c1
- inhibition [1]: 14% (inactive)
- inhibition [2]: 14% (inactive)
- inhibition [3]: 14% (inactive)

SMILES: CC(=O)N1c2ccc(S(=O)(=O)N3CCC(C(=O)N4CCN(c5ccc(Cl)cc5)CC4)CC3)cc2CC1C (centres undefined)
- inhibition [1]: 3% (inactive)
- inhibition [2]: 26% (inactive)
- inhibition [3]: 32%

SMILES: COc1ccc(-n2nc(C(=O)NCC(=O)N3CCN(c4cccc(Cl)c4)CC3)c3ccccc3c2=O)c(OC)c1
- inhibition [1]: 33%
- inhibition [2]: 41%
- inhibition [3]: 52%

SMILES: Cc1cccc(NC(=O)CN2C(=O)S/C(=C\c3cccn3-c3cccc(C(=O)O)c3)C2=O)c1
- inhibition [1]: 17% (inactive)
- inhibition [2]: 77%
- inhibition [3]: 66%

SMILES: COc1ccc(-c2noc(CCC(=O)N3CCN(c4cccc(C(F)(F)F)c4)CC3)n2)cc1
- inhibition [1]: 1% (inactive)
- inhibition [2]: 14% (inactive)
- inhibition [3]: 2% (inactive)

SMILES: COc1cc(C=NNC(=O)C(NC(=O)c2ccccc2)c2n[nH]c(=O)c3ccccc23)ccc1OCC(N)=O (centres undefined)
- inhibition [1]: 14% (inactive)
- inhibition [2]: 3% (inactive)
- inhibition [3]: 9% (inactive)

SMILES: COc1ccc(OC)c(-c2cc(C(=O)Nc3c(C)nn(Cc4ccccc4)c3C)no2)c1
- inhibition [1]: 15% (inactive)
- inhibition [2]: 0% (inactive)
- inhibition [3]: 3% (inactive)

SMILES: O=C(Cc1ccc([N+](=O)[O-])cc1)N1CCN(c2ccc([N+](=O)[O-])cc2)CC1
- inhibition [1]: 0% (inactive)
- inhibition [2]: 0% (inactive)
- inhibition [3]: 0% (inactive)

SMILES: O=C(Nc1ccc(N2CCN(C(=O)c3ccco3)CC2)c(Cl)c1)c1c(F)c(F)c(F)c(F)c1F
- inhibition [1]: 18% (inactive)
- inhibition [2]: 0% (inactive)
- inhibition [3]: 5% (inactive)

SMILES: C/C(C=NNC(=O)Cn1nnc(N)n1)=C\c1ccc(C(C)C)cc1
- inhibition [1]: 0% (inactive)
- inhibition [2]: 0% (inactive)
- inhibition [3]: 2% (inactive)

SMILES: O=C(N1CCOCC1)n1nnc2ccccc21
- inhibition [1]: 103%
- inhibition [2]: 54%
- inhibition [3]: 47%

SMILES: O=C(O)c1ccc(CN2C(=O)c3ccc(Oc4ccc([N+](=O)[O-])cc4)cc3C2=O)cc1
- inhibition [1]: 6% (inactive)
- inhibition [2]: 4% (inactive)
- inhibition [3]: 7% (inactive)

SMILES: COc1ccc2c(c1)C(=O)[C@@H](O)[C@H](c1ccc(OC)c(Br)c1)O2
- inhibition [1]: 13% (inactive)
- inhibition [2]: 31%
- inhibition [3]: 20% (inactive)

SMILES: O=C(CN1C(=O)S/C(=C\c2ccc(C(=O)O)cc2)C1=O)Nc1ccccc1
- inhibition [1]: 7% (inactive)
- inhibition [2]: 8% (inactive)
- inhibition [3]: 8% (inactive)

SMILES: O=C(NCC1CCN(c2ccc(S(=O)(=O)N3CCOCC3)cc2)CC1)c1ccc(Cl)cc1
- inhibition [1]: 3% (inactive)
- inhibition [2]: 9% (inactive)
- inhibition [3]: 9% (inactive)

SMILES: COc1ccc(-n2nc(C(=O)NCC(=O)N3CCN(Cc4ccccc4)CC3)c3ccccc3c2=O)c(OC)c1
- inhibition [1]: 0% (inactive)
- inhibition [2]: 15% (inactive)
- inhibition [3]: 18% (inactive)

SMILES: COc1ccc(OC)c(-c2cc(C(=O)Nc3c(C)nn(Cc4ccccc4C)c3C)no2)c1
- inhibition [1]: 6% (inactive)
- inhibition [2]: 0% (inactive)
- inhibition [3]: 8% (inactive)

SMILES: O=C(NC(=S)Nc1sc2c(c1C(=O)O)CCCC2)c1ccccc1
- inhibition [1]: 34%
- inhibition [2]: 43%
- inhibition [3]: 32%

SMILES: COc1cc(/C=C2\SC(=O)N(CC(=O)Nc3cccc(C)c3)C2=O)ccc1OC(C)C(=O)O (centres undefined)
- inhibition [1]: 28% (inactive)
- inhibition [2]: 37%
- inhibition [3]: 58%

SMILES: CC(CCC(C)C)=NNC(=S)Nc1cc(S(=O)(=O)N2CCOCC2)ccc1N1CCOCC1
- inhibition [1]: 19% (inactive)
- inhibition [2]: 16% (inactive)
- inhibition [3]: 8% (inactive)

SMILES: COc1ccc(N2CCN(C(=O)c3ccc(C(C)(C)C)cc3)CC2)cc1
- inhibition [1]: 16% (inactive)
- inhibition [2]: 47%
- inhibition [3]: 57%

SMILES: O=[N+]([O-])c1ccc(Oc2cccc(Br)c2)c2ccncc12
- inhibition [1]: 13% (inactive)
- inhibition [2]: 0% (inactive)
- inhibition [3]: 2% (inactive)

SMILES: O=C(c1ccc2n[nH]nc2c1)N1CCN(c2ccc(C(F)(F)F)cn2)CC1
- inhibition [1]: 40%
- inhibition [2]: 35%
- inhibition [3]: 26% (inactive)

SMILES: COc1ccccc1-c1nnc(C2CCN(S(=O)(=O)c3ccc([N+](=O)[O-])cc3)CC2)o1
- inhibition [1]: 16% (inactive)
- inhibition [2]: 5% (inactive)
- inhibition [3]: 9% (inactive)

SMILES: Cc1cccc(N2CCN(C(=O)Cc3ccc(-n4c(=O)[nH]c5ccsc5c4=O)cc3)CC2)c1C
- inhibition [1]: 14% (inactive)
- inhibition [2]: 0% (inactive)
- inhibition [3]: 4% (inactive)

SMILES: CC(=O)c1ccc(N2CCN(C(=O)C3CCN(S(=O)(=O)c4ccc5c(c4)CC(C)N5C(=O)C4CC4)CC3)CC2)cc1 (centres undefined)
- inhibition [1]: 18% (inactive)
- inhibition [2]: 19% (inactive)
- inhibition [3]: 10% (inactive)

SMILES: CCCCCCCCCC(=O)Nn1cnc2ccccc2c1=O
- inhibition [1]: 28% (inactive)
- inhibition [2]: 12% (inactive)
- inhibition [3]: 4% (inactive)

SMILES: Cc1ccc(N/C=C(\C#N)c2ccc(OCCCF)cc2)cc1
- inhibition [1]: 17% (inactive)
- inhibition [2]: 13% (inactive)
- inhibition [3]: 5% (inactive)

SMILES: CC(=O)c1ccc(N2CCN(C(=O)C3CCN(S(=O)(=O)c4ccc5c(c4)CC(C)N5C(C)=O)CC3)CC2)cc1 (centres undefined)
- inhibition [1]: 18% (inactive)
- inhibition [2]: 10% (inactive)
- inhibition [3]: 8% (inactive)

SMILES: COc1ccc(N2CCN(C(=O)c3cc4c(s3)-c3ccccc3S(=O)(=O)C4)CC2)cc1
- inhibition [1]: 25% (inactive)
- inhibition [2]: 74%
- inhibition [3]: 79%

SMILES: Cc1cccc(NC(=O)CN2C(=O)S/C(=C\c3cc(C)n(C)c3C)C2=O)c1
- inhibition [1]: 9% (inactive)
- inhibition [2]: 40%
- inhibition [3]: 51%

SMILES: Cc1ccc(NC(=O)Cn2c([N+](=O)[O-])cnc2C)cc1Cl
- inhibition [1]: 0% (inactive)
- inhibition [2]: 8% (inactive)
- inhibition [3]: 8% (inactive)

SMILES: Cc1ccccc1NC(=O)CN1C(=O)S/C(=C\c2cccn2-c2cccc(C(=O)O)c2)C1=O
- inhibition [1]: 0% (inactive)
- inhibition [2]: 13% (inactive)
- inhibition [3]: 4% (inactive)

SMILES: O=C(O)c1cccc(N2C(=O)c3ccc(Oc4ccc(Cl)cc4)cc3C2=O)c1
- inhibition [1]: 25% (inactive)
- inhibition [2]: 11% (inactive)
- inhibition [3]: 7% (inactive)

SMILES: Cc1nc(-c2ccc(S(=O)(=O)N3CCCN(CCc4ccccc4)CC3)s2)cs1
- inhibition [1]: 7% (inactive)
- inhibition [2]: 0% (inactive)
- inhibition [3]: 8% (inactive)

SMILES: COc1ccc(-n2nc(C(=O)NCC(=O)N3CCN(Cc4ccc5c(c4)OCO5)CC3)c3ccccc3c2=O)cc1OC
- inhibition [1]: 0% (inactive)
- inhibition [2]: 23% (inactive)
- inhibition [3]: 26% (inactive)

SMILES: CCN(CC)S(=O)(=O)c1ccc(N2CCOCC2)c(NC(=O)COc2ccc(C#N)cc2)c1
- inhibition [1]: 12% (inactive)
- inhibition [2]: 0% (inactive)
- inhibition [3]: 3% (inactive)

SMILES: Cc1nc([N+](=O)[O-])cn1CC(=O)Nc1ccc(F)c(Cl)c1
- inhibition [1]: 0% (inactive)
- inhibition [2]: 15% (inactive)
- inhibition [3]: 10% (inactive)

SMILES: COc1cc(C2Oc3cc(C4Oc5cc(O)cc(O)c5C(=O)C4O)ccc3OC2CO)ccc1O (centres undefined)
- inhibition [1]: 10% (inactive)
- inhibition [2]: 19% (inactive)
- inhibition [3]: 14% (inactive)

SMILES: O=C(Cn1cnc2ccccc2c1=O)c1ccc(OC(F)F)cc1
- inhibition [1]: 5% (inactive)
- inhibition [2]: 8% (inactive)
- inhibition [3]: 7% (inactive)

Reference: PubChem BioAssay AID652030 (The Scripps Research Institute Molecular Screening Center, 2013)
